In patent US10689365B2, “Substituted 2-alkylimidazolylcarboxamides as pesticides” (Bayer CropScience Aktiengesellschaft, priority 2016, dated 2020):
Where two headings read alike, the source gives them in different places.

Legend:
Myzus persicae [1] = assay: Myzus persicae - spray test (Chinese cabbage leaf discs); format: in vivo; details: Myzus persicae, foliar; application rate 500 g/ha, after 5-6 days; read-out: efficacy
Experimental: Myzus persicae—Spray Test
Solvent: 78 parts by weight of acetone • • 1.5 parts by weight of dimethylformamide
(§1) Emulsifier: alkylaryl polyglycol ether
(§2) To produce a suitable active compound preparation, 1 part by weight of active compound is dissolved using the stated parts by weight of solvent and made up with water containing an emulsifier concentration of 1000 ppm until the desired concentration is attained. To produce further test concentrations, the formulation is diluted with emulsifier-containing water.
Discs of Chinese cabbage leaves (Brassica pekinensis) infested by all stages of the green peach aphid (Myzus persicae) are sprayed with an active ingredient formulation of the desired concentration.
After 5-6 days, the efficacy in % is determined. 100% means that all the aphids have been killed; 0% means that no aphids have been killed.

Myzus persicae [2] = assay: Myzus persicae - oral test; format: in vivo; details: Myzus persicae, po, 120 h; application rate 20 ppm, after 5 days; read-out: efficacy
Experimental: (§3) Solvent: 100 parts by weight of acetone
(§4) To produce a suitable preparation of active compound, 1 part by weight of active compound is dissolved using the specified parts by weight of solvent and made up with water until the desired concentration is attained.
(§5) 50 μl of the active compound preparation are transferred into microtitre plates and made up to a final volume of 200 μl with 150 μl of IPL41 insect medium (33%+15% sugar). Subsequently, the plates are sealed with parafilm, which a mixed population of green peach aphids (Myzus persicae) within a second microtitre plate is able to puncture and imbibe the solution through it.
After 5 days, the efficacy in % is determined. 100% means that all the aphids have been killed; 0% means that no aphids have been killed.

Myzus persicae [3] = assay: Myzus persicae - spray test (MYZUPE), Chinese cabbage leaf discs; format: in vivo; details: foliar, 120 h, 5 dat; for percent efficacy (aphid mortality) at 20 g/ha: 20 g of ai/ha; for percent efficacy (aphid mortality) at 100 g/ha: 100 g of ai/ha
Experimental: Myzus persicae—Spray Test (MYZUPE)
Solvent: 78.0 parts by weight of acetone • • 1.5 parts by weight of dimethylformamide
as §1, §2
Discs of Chinese cabbage leaves (Brassica pekinensis) infested by all stages of the green peach aphid (Myzus persicae) are sprayed with an active compound preparation of the desired concentration.
(§6) After the desired period of time, the efficacy in % is determined. 100% means that all the aphids have been killed; 0% means that no aphids have been killed.

Myzus persicae [4] = assay: Myzus persicae - oral test (MYZUPE O); format: in vivo; details: 120 h, 5 dat, read-out: % efficacy
Experimental: Myzus persicae—Oral Test (MYZUPE O)
as §3, §4, §5, §6

Myzus persicae [5] = assay: Myzus persicae - spray test (MYZUPE S), bell pepper plants; format: in vivo; details: 144 h, 6 dat, read-out: % efficacy
Experimental: Myzus persicae—Spray Test (MYZUPE S)
(§7) Solvent: 14 parts by weight of dimethylformamide
as §1
as §2, with “with” for “using”, “specified” for “stated”, “water. If the addition of ammonium salts or/and penetrants is required, these are each added in a concentration of 1000 ppm to the formulation solution.” for “water.”
Bell pepper plants (Capsicum annuum) severely infested with the green peach aphid (Myzus persicae) are treated by spraying with the active ingredient formulation in the desired concentration.
After the desired time, the kill in % is determined. 100% means that all the animals have been killed; 0% means that no animals have been killed.

Myzus persicae [6] = assay: Myzus persicae - drench test (MYZUPE D), Savoy cabbage in soil; format: in vivo; details: 240 h, 10 dat, read-out: % efficacy
Experimental: Myzus persicae—Drench Test (MYZUPE D)
To produce a suitable active compound preparation, 1 part by weight of active compound is mixed with the specified amounts of solvent and emulsifier, and the concentrate is diluted with water to the desired concentration, it being necessary to include the volume of soil which is drenched in the calculation. It should be ensured that a concentration of 40 ppm of emulsifier in the soil is not exceeded. To produce further test concentrations, water is used for dilution.
Savoy cabbage (Brassica oleracea) in pots with soil and infested by all stages of the green peach aphid (Myzus persicae) is watered with an active compound preparation of the desired concentration.
as §6

Aphis gossypii = Aphis gossypii - spray test (APHIGO S), cotton plants; format: in vivo; details: 144 h, 6 dat, read-out: % efficacy
Experimental: Aphis gossypii—Spray Test (APHIGO S)
as §7, §1
as §2, with “water. If the addition of ammonium salts or/and penetrants is required, these are each added in a concentration of 1000 ppm to the formulation solution.” for “water.”
Cotton plants (Gossypium hirsutum) heavily infested by the cotton aphid (Aphis gossypii) are sprayed with an active ingredient formulation of the desired concentration.
After the desired time, the kill in % is determined. 100% means that all the aphids have been killed; 0% means that no aphids have been killed.

[7] = log P by HPLC on reversed-phase (C18) columns, OECD Guideline 117; format: physicochemical; details: reversed-phase (C18) HPLC column
Experimental: The log P values were determined in accordance with OECD Guideline 117 (EC Directive 92/69/EEC) by HPLC (high-performance liquid chromatography) using reversed-phase (RP) columns (C18), by the following methods:
[a] The LC-MS determination in the acidic range was carried out at pH 2.7 with 0.1% aqueous formic acid and acetonitrile (contains 0.1% formic acid) as mobile phases; linear gradient from 10% acetonitrile to 95% acetonitrile.
[b] LC-MS determination in the neutral range was carried out at pH 7.8 with 0.001 molar aqueous ammonium hydrogencarbonate solution and acetonitrile as mobile phases; linear gradient from 10% acetonitrile to 95% acetonitrile.

[8] = acidic range, pH 2.7, 0.1% aqueous formic acid/acetonitrile, read-out: logP[a]
[9] = neutral range, pH 7.8, aqueous ammonium hydrogencarbonate/acetonitrile, read-out: logP[n]

With `CCSCc1ncc(C(=O)N(CC)c2cccnc2)n1C` [Example I-1-49] the pest or weed control at 500 g/ha (Myzus persicae [1]) was 90%, the pest or weed control at 20 ppm (Myzus persicae [2]) was 100% and the percent efficacy (aphid mortality) at 20 g/ha (Myzus persicae [3]) was 70%. The percent efficacy (aphid mortality) at 100 g/ha (Myzus persicae [3]) was 70%, the Emax at 4 ppm (Myzus persicae [4]) was 100% and the Emax at 0.16 ppm (Myzus persicae [5]) was 95%. It also gave an Emax at 0.16 ppm (Myzus persicae [6]) of 95%, an Emax at 0.8 ppm (Aphis gossypii; 0.8 ppm) of 98% and an Emax at 4 ppm (Aphis gossypii) of 100%. For the same molecule, the chromatographic logP [7, 8] was 0.71.

Molecule `CN(C(=O)c1cnc(CSCC(C)(C)C)n1C)c1cccnc1` [Example I-1-36] has a pest or weed control at 500 g/ha (Myzus persicae [1]) of 90%, a pest or weed control at 20 ppm (Myzus persicae [2]) of 100% and a percent efficacy (aphid mortality) at 20 g/ha (Myzus persicae [3]) of 90%. For the same molecule, the percent efficacy (aphid mortality) at 100 g/ha (Myzus persicae [3]) was 90%, the Emax at 4 ppm (Myzus persicae [4]) was 100% and the Emax at 0.16 ppm (Myzus persicae [5]) was 75%. For the same molecule, the Emax at 0.16 ppm (Myzus persicae [6]) was 80%, the Emax at 0.8 ppm (Aphis gossypii; 0.8 ppm) was 98% and the Emax at 4 ppm (Aphis gossypii) was 98%. The chromatographic logP [7, 8] was 1.42 and the chromatographic logP [7, 9] was 2.06.

For `CC(C)SCc1ncc(C(=O)N(C)c2cccnc2)n1C` [Example I-1-29, 2-[(Isopropylsulphanyl)methyl]-N,1-dimethyl-N-(pyridin-3-yl)-1H-imidazole-5-carboxamide], the pest or weed control at 500 g/ha (Myzus persicae [1]) was 90%, the pest or weed control at 20 ppm (Myzus persicae [2]) was 100% and the percent efficacy (aphid mortality) at 100 g/ha (Myzus persicae [3]) was 90%. For the same molecule, the Emax at 4 ppm (Myzus persicae [4]) was 100%, the Emax at 0.16 ppm (Myzus persicae [5]) was 99% and the Emax at 0.16 ppm (Myzus persicae [6]) was 98%. It also gave an Emax at 0.8 ppm (Aphis gossypii; 0.8 ppm) of 98%, an Emax at 4 ppm (Aphis gossypii) of 100% and a chromatographic logP [7, 8] of 0.76. It also gave a chromatographic logP [7, 9] of 1.5.

`CC(C)CSCc1ncc(C(=O)N(C)c2cccnc2)n1C` [Example I-1-31, 2-[(isobutylsulphanyl)methyl]-N,1-dimethyl-N-(pyridin-3-yl)-1H-imidazole-5-carboxamide] showed a pest or weed control at 500 g/ha (Myzus persicae [1]) of 100%, a pest or weed control at 20 ppm (Myzus persicae [2]) of 100% and a percent efficacy (aphid mortality) at 20 g/ha (Myzus persicae [3]) of 90%. For the same molecule, the percent efficacy (aphid mortality) at 100 g/ha (Myzus persicae [3]) was 90%, the Emax at 4 ppm (Myzus persicae [4]) was 100% and the Emax at 0.16 ppm (Myzus persicae [5]) was 99%. It also gave an Emax at 0.16 ppm (Myzus persicae [6]) of 95%, an Emax at 0.8 ppm (Aphis gossypii; 0.8 ppm) of 100% and an Emax at 4 ppm (Aphis gossypii) of 100%. The chromatographic logP [7, 8] was 1.18 and the chromatographic logP [7, 9] was 1.84.

With `CN(C(=O)c1cnc(CSCC2CC2)n1C)c1cccnc1` [Example I-1-35] the pest or weed control at 500 g/ha (Myzus persicae [1]) was 100%, the pest or weed control at 20 ppm (Myzus persicae [2]) was 100% and the percent efficacy (aphid mortality) at 20 g/ha (Myzus persicae [3]) was 90%. The percent efficacy (aphid mortality) at 100 g/ha (Myzus persicae [3]) was 90%, the Emax at 4 ppm (Myzus persicae [4]) was 100% and the Emax at 0.16 ppm (Myzus persicae [5]) was 100%. It also gave an Emax at 0.16 ppm (Myzus persicae [6]) of 98%, an Emax at 0.8 ppm (Aphis gossypii; 0.8 ppm) of 99% and an Emax at 4 ppm (Aphis gossypii) of 100%. The chromatographic logP [7, 8] was 0.96 and the chromatographic logP [7, 9] was 1.57.

In the case of `CCN(C(=O)c1cnc(CSCC2CC2)n1C)c1cccnc1` [Example I-1-53], the pest or weed control at 500 g/ha (Myzus persicae [1]) was 100%, the pest or weed control at 20 ppm (Myzus persicae [2]) was 100% and the percent efficacy (aphid mortality) at 20 g/ha (Myzus persicae [3]) was 100%. It also gave a percent efficacy (aphid mortality) at 100 g/ha (Myzus persicae [3]) of 100%, an Emax at 4 ppm (Myzus persicae [4]) of 100% and an Emax at 0.16 ppm (Myzus persicae [5]) of 99%. For the same molecule, the Emax at 0.16 ppm (Myzus persicae [6]) was 90%, the percent kill (mortality) of aphids at a fixed dose at 0.8 ppm (Aphis gossypii; 0.8 ppm) was 98% and the Emax at 4 ppm (Aphis gossypii) was 97%. The chromatographic logP [7, 8] was 1.19 and the chromatographic logP [7, 9] was 1.82.
